In PubChem BioAssay AID1963436 (Molecular Pharmacology Branch, DTP, NCI, 2024):
pIC50: −log10 of the molar value.

System: OVCAR-5 complex spheroid (HUVEC/MSC), viability % T/C
Experiment: Anticancer human tumor OVCAR-5 cell line growth inhibition [Asc];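 also: spheroids exposed to agents for 7 days before readout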;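 as to viability, T/C: 100% = DMSO vehicle-treated wells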
Details: for pIC50: curve of first compound; for viability, T/C: stronger effect = lower value
Summary of the method: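 Complex spheroids combining tumor cells with HUVEC endothelial cells and human MSCs, at 37 degrees C, 5% CO2; agents tested alone or combined, half-log dilutions from at or near clinical Cmax, or 10 microM if Cmax unknown.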

[1] = second compound 0.1 µM, first compound 0.00316 µM
[2] = second compound 0.1 µM, first compound 0.01 µM
[3] = second compound 0.1 µM, first compound 0.0316 µM
[4] = second compound 0.1 µM, first compound 0.1 µM
[5] = second compound 0.1 µM, first compound 0.316 µM
[6] = second compound 0.1 µM, first compound 1 µM
[7] = second compound 0.316 µM, first compound 0.00316 µM
[8] = second compound 0.316 µM, first compound 0.01 µM
[9] = second compound 0.316 µM, first compound 0.0316 µM
[10] = second compound 0.316 µM, first compound 0.1 µM
[11] = second compound 0.316 µM, first compound 0.316 µM
[12] = second compound 0.316 µM, first compound 1 µM
[13] = second compound 1 µM, first compound 0.00316 µM
[14] = second compound 1 µM, first compound 0.01 µM
[15] = second compound 1 µM, first compound 0.0316 µM
[16] = second compound 1 µM, first compound 0.1 µM
[17] = second compound 1 µM, first compound 0.316 µM
[18] = second compound 1 µM, first compound 1 µM
[19] = second compound 3.16 µM, first compound 0.00316 µM
[20] = second compound 3.16 µM, first compound 0.01 µM
[21] = second compound 3.16 µM, first compound 0.0316 µM
[22] = second compound 3.16 µM, first compound 0.1 µM
[23] = second compound 3.16 µM, first compound 0.316 µM
[24] = second compound 3.16 µM, first compound 1 µM
[25] = second compound 10 µM, first compound 0.00316 µM
[26] = second compound 10 µM, first compound 0.01 µM
[27] = second compound 10 µM, first compound 0.0316 µM
[28] = second compound 10 µM, first compound 0.1 µM
[29] = second compound 10 µM, first compound 0.316 µM
[30] = second compound 10 µM, first compound 1 µM

CCN1CCN(Cc2ccc(Nc3ncc(F)c(-c4cc(F)c5nc(C)n(C(C)C)c5c4)n3)nc2)CC1 + Cc1c(S(C)(=O)=O)c(-c2cc(F)cc(N3CCN(c4ccc(NS(=O)(=O)c5ccc(NC(CCN6CCC(C(=O)OCCCP(=O)(O)O)CC6)CSc6ccccc6)c(S(=O)(=O)C(F)(F)F)c5)cc4)CC3)c2)c(-c2ccc(Cl)cc2)n1C(C)C
pIC50 (second compound 0.1 µM): < 6.00
pIC50 (second compound 0.316 µM): < 6.00
pIC50 (second compound 1 µM): < 6.00
pIC50 (second compound 3.16 µM): < 6.00
pIC50 (second compound 10 µM): < 6.00
viability, T/C [1]: 94.7%
viability, T/C [2]: 83.5%
viability, T/C [3]: 66%
viability, T/C [4]: 61.5%
viability, T/C [5]: 69.6%
viability, T/C [6]: 56.1%
viability, T/C [7]: 79.4%
viability, T/C [8]: 74.1%
viability, T/C [9]: 68.6%
viability, T/C [10]: 56.1%
viability, T/C [11]: 61.8%
viability, T/C [12]: 57%
viability, T/C [13]: 80.1%
viability, T/C [14]: 80.4%
viability, T/C [15]: 63.5%
viability, T/C [16]: 55%
viability, T/C [17]: 58.3%
viability, T/C [18]: 50.8%
viability, T/C [19]: 77%
viability, T/C [20]: 72.9%
viability, T/C [21]: 63.9%
viability, T/C [22]: 48.6%
viability, T/C [23]: 58.4%
viability, T/C [24]: 47.9%
viability, T/C [25]: 107%
viability, T/C [26]: 97.7%
viability, T/C [27]: 81.5%
viability, T/C [28]: 47%
viability, T/C [29]: 54.3%
viability, T/C [30]: 49.1%

Cn1ncnc1[C@H]1c2n[nH]c(=O)c3cc(F)cc(c23)N[C@@H]1c1ccc(F)cc1 + Cc1c(S(C)(=O)=O)c(-c2cc(F)cc(N3CCN(c4ccc(NS(=O)(=O)c5ccc(NC(CCN6CCC(C(=O)OCCCP(=O)(O)O)CC6)CSc6ccccc6)c(S(=O)(=O)C(F)(F)F)c5)cc4)CC3)c2)c(-c2ccc(Cl)cc2)n1C(C)C
pIC50 (second compound 0.1 µM): < 7.00
pIC50 (second compound 0.316 µM): < 7.00
pIC50 (second compound 1 µM): < 7.00
pIC50 (second compound 3.16 µM): < 7.00
pIC50 (second compound 10 µM): < 7.00
viability, T/C (second compound 0.1 µM, first compound 0.000316 µM): 99%
viability, T/C (second compound 0.1 µM, first compound 0.001 µM): 101%
viability, T/C [1]: 100%
viability, T/C [2]: 82.9%
viability, T/C [3]: 86%
viability, T/C [4]: 91.1%
viability, T/C (second compound 0.316 µM, first compound 0.000316 µM): 96.3%
viability, T/C (second compound 0.316 µM, first compound 0.001 µM): 95%
viability, T/C [7]: 97%
viability, T/C [8]: 89.7%
viability, T/C [9]: 89.1%
viability, T/C [10]: 74.2%
viability, T/C (second compound 1 µM, first compound 0.000316 µM): 96.7%
viability, T/C (second compound 1 µM, first compound 0.001 µM): 110%
viability, T/C [13]: 100%
viability, T/C [14]: 91.7%
viability, T/C [15]: 76.5%
viability, T/C [16]: 89.2%
viability, T/C (second compound 3.16 µM, first compound 0.000316 µM): 88.1%
viability, T/C (second compound 3.16 µM, first compound 0.001 µM): 90.9%
viability, T/C [19]: 91.2%
viability, T/C [20]: 70.1%
viability, T/C [21]: 87.9%
viability, T/C [22]: 76.9%
viability, T/C (second compound 10 µM, first compound 0.000316 µM): 117%
viability, T/C (second compound 10 µM, first compound 0.001 µM): 138%
viability, T/C [25]: 133%
viability, T/C [26]: 110%
viability, T/C [27]: 97.9%
viability, T/C [28]: 102%

O=C(c1cc(Cc2n[nH]c(=O)c3ccccc23)ccc1F)N1CCN(C(=O)C2CC2)CC1 + Cc1c(S(C)(=O)=O)c(-c2cc(F)cc(N3CCN(c4ccc(NS(=O)(=O)c5ccc(NC(CCN6CCC(C(=O)OCCCP(=O)(O)O)CC6)CSc6ccccc6)c(S(=O)(=O)C(F)(F)F)c5)cc4)CC3)c2)c(-c2ccc(Cl)cc2)n1C(C)C
pIC50 (second compound 0.1 µM): < 5.00
pIC50 (second compound 0.316 µM): < 5.00
pIC50 (second compound 1 µM): < 5.00
pIC50 (second compound 3.16 µM): < 5.00
pIC50 (second compound 10 µM): < 5.00
viability, T/C [3]: 103%
viability, T/C [4]: 101%
viability, T/C [5]: 90.8%
viability, T/C [6]: 82.6%
viability, T/C (second compound 0.1 µM, first compound 3.16 µM): 91.5%
viability, T/C (second compound 0.1 µM, first compound 10 µM): 76.1%
viability, T/C [9]: 95.8%
viability, T/C [10]: 95.6%
viability, T/C [11]: 84.8%
viability, T/C [12]: 79.6%
viability, T/C (second compound 0.316 µM, first compound 3.16 µM): 83.6%
viability, T/C (second compound 0.316 µM, first compound 10 µM): 78.5%
viability, T/C [15]: 92.2%
viability, T/C [16]: 89.8%
viability, T/C [17]: 88%
viability, T/C [18]: 81.4%
viability, T/C (second compound 1 µM, first compound 3.16 µM): 78.4%
viability, T/C (second compound 1 µM, first compound 10 µM): 62.6%
viability, T/C [21]: 86.2%
viability, T/C [22]: 94.1%
viability, T/C [23]: 82.3%
viability, T/C [24]: 75.4%
viability, T/C (second compound 3.16 µM, first compound 3.16 µM): 73.4%
viability, T/C (second compound 3.16 µM, first compound 10 µM): 64.7%
viability, T/C [27]: 130%
viability, T/C [28]: 128%
viability, T/C [29]: 114%
viability, T/C [30]: 95.5%
viability, T/C (second compound 10 µM, first compound 3.16 µM): 94.1%
viability, T/C (second compound 10 µM, first compound 10 µM): 73.6%

O=C(c1ccc(F)c(F)c1Nc1ccc(I)cc1F)N1CC(O)([C@@H]2CCCCN2)C1 + Cc1c(S(C)(=O)=O)c(-c2cc(F)cc(N3CCN(c4ccc(NS(=O)(=O)c5ccc(NC(CCN6CCC(C(=O)OCCCP(=O)(O)O)CC6)CSc6ccccc6)c(S(=O)(=O)C(F)(F)F)c5)cc4)CC3)c2)c(-c2ccc(Cl)cc2)n1C(C)C
pIC50 (second compound 0.1 µM): 6.82
pIC50 (second compound 0.316 µM): 7.08
pIC50 (second compound 1 µM): 7.11
pIC50 (second compound 3.16 µM): 7.23
pIC50 (second compound 10 µM): 7.12
viability, T/C [1]: 104%
viability, T/C [2]: 102%
viability, T/C [3]: 71.8%
viability, T/C [4]: 54.8%
viability, T/C [5]: 41.9%
viability, T/C [6]: 17.6%
viability, T/C [7]: 93.7%
viability, T/C [8]: 97.3%
viability, T/C [9]: 66.7%
viability, T/C [10]: 42.1%
viability, T/C [11]: 32.2%
viability, T/C [12]: 9.34%
viability, T/C [13]: 90.7%
viability, T/C [14]: 95%
viability, T/C [15]: 74.5%
viability, T/C [16]: 38.3%
viability, T/C [17]: 26.9%
viability, T/C [18]: 4.46%
viability, T/C [19]: 81.2%
viability, T/C [20]: 90.4%
viability, T/C [21]: 68.1%
viability, T/C [22]: 31.6%
viability, T/C [23]: 18.6%
viability, T/C [24]: 1.8%
viability, T/C [25]: 115%
viability, T/C [26]: 112%
viability, T/C [27]: 78.8%
viability, T/C [28]: 41.1%
viability, T/C [29]: 12.6%
viability, T/C [30]: 2.47%
